How the values were obtained:
[1] = Liquid-liquid partition coefficients between FC-72 and organic solvents (partitioning followed by HPLC analysis); format: physicochemical; settings: room temperature; for Partition coefficient FC-72/THF (P = cfluorous phase/corganic phase): 50/50 (v/v) FC-72/THF; for Partition coefficient FC-72/methanol (P = cfluorous phase/corganic phase): 50/50 (v/v) FC-72/methanol; for Partition coefficient FC-72/toluene (P = cfluorous phase/corganic phase): 50/50 (v/v) FC-72/toluene
Method: Liquid-liquid partition coefficients for all six phosphines between FC-72 and three organic solvents (methanol, THF, and toluene) were also measured. The procedure involved a simple partitioning followed by HPLC analysis.

| Compound | melting point [°C] | Partition coefficient FC-72/THF (P = cfluorous phase/corganic phase) [1] | Partition coefficient FC-72/methanol (P = cfluorous phase/corganic phase) [1] | Partition coefficient FC-72/toluene (P = cfluorous phase/corganic phase) [1] |
| --- | --- | --- | --- | --- |
| FC(F)(F)C(F)(F)C(F)(F)C(F)(F)C(F)(F)C(F)(F)CCc1ccc(P(c2ccc(CCC(F)(F)C(F)(F)C(F)(F)C(F)(F)C(F)(F)C(F)(F)F)cc2)c2ccc(CCC(F)(F)C(F)(F)C(F)(F)C(F)(F)C(F)(F)C(F)(F)F)cc2)cc1 [Compound 1a, Tris-[4-(3,3,4,4,5,5,6,6,7,7,8,8,8-tridecafluorooctyl)phenyl]phosphane] | 49.9 to 52.4 | 0.08 | 30.03 | 0.75 |
| FC(F)(F)C(F)(F)C(F)(F)C(Cc1ccc(P(c2ccccc2)c2ccc(CC(C(F)(F)F)(C(F)(F)F)C(F)(F)C(F)(F)C(F)(F)F)cc2)cc1)(C(F)(F)F)C(F)(F)F [Compound 5b, Phenyl-bis-[4-(3,3,4,4,5,5,5-heptafluoro-2,2-bis-rifluoromethylpentyl)phenyl]phosphane] |  | 1.05 | 3.34 | 0.18 |
| FC(F)(F)C(F)(F)C(F)(F)C(Cc1ccc(P(c2ccccc2)c2ccccc2)cc1)(C(F)(F)F)C(F)(F)F [Compound 5c, Diphenyl-[4-(3,3,4,4,5,5,5-heptafluoro-2,2-bis-trifluoromethylpentyl)phenyl]phosphane] |  | 0.01 | 0.09 | 0.12 |
| FC(F)(F)C(F)(F)C(F)(F)C(Cc1ccc(P(c2ccc(CC(C(F)(F)F)(C(F)(F)F)C(F)(F)C(F)(F)C(F)(F)F)cc2)c2ccc(CC(C(F)(F)F)(C(F)(F)F)C(F)(F)C(F)(F)C(F)(F)F)cc2)cc1)(C(F)(F)F)C(F)(F)F [Compound 5a, Tris-[4-(3,3,4,4,5,5,5-heptafluoro-2,2-bis-trifluoromethylpentyl)phenyl]phosphane] |  | 0.51 | 18.48 | 6.84 |
| FC(F)(F)C(F)(F)C(F)(F)C(F)(F)C(F)(F)C(F)(F)CCc1ccc(P(c2ccccc2)c2ccccc2)cc1 [Compound 1c, Diphenyl-[4-(3,3,4,4,5,5,6,6,7,7,8,8,8-tridecafluorooctyl)phenyl]phosphane] |  | 0.02 | 0.12 | 0.05 |
| FC(F)(F)C(F)(F)C(F)(F)C(F)(F)C(F)(F)C(F)(F)CCc1ccc(P(c2ccccc2)c2ccc(CCC(F)(F)C(F)(F)C(F)(F)C(F)(F)C(F)(F)C(F)(F)F)cc2)cc1 [Compound 1b, Phenyl-bis-[4-(3,3,4,4,5,5,6,6,7,7,8,8,8-tridecafluorooctyl)phenyl]phosphane] | 42.1 to 43.1 | 0.05 | 1.86 | 0.05 |

From US6727390B2, “Fluorous phosphines and phosphine oxides” (University of Pittsburgh, priority 2001, dated 2004)
